ChEMBL document CHEMBL6177961, “Structure-Based Analysis of Semisynthetic Anti-TB Rufomycin Analogues” (J Nat Prod, 2025)
Converted amounts (≈) assume the structure as drawn.

How the values were obtained:
[1] = system: Mycobacterium tuberculosis; assay: Antimycobacterial activity against Mycobacterium tuberculosis H37Rv ATCC 27294 assessed as reduction in bacterial growth by microplate alamar blue assay; assay type: functional
Mycobacterium avium = assay: Antimycobacterial activity against Mycobacterium avium assessed as reduction in bacterial growth; assay type: functional
[2] = system: Mycobacteroides abscessus; assay: Antimycobacterial activity against Mycobacterium abscessus ATCC 19977 assessed as reduction in bacterial growth by microplate Alamar blue assay; assay type: functional
[3] = Binding affinity to N-terminal Mycobacterium tuberculosis ClpC1 assessed as dissociation constant by SPR analysis
[4] = Binding affinity to full length Mycobacterium tuberculosis ClpC1 assessed as dissociation constant by SPR analysis
[5] = Cytotoxicity against African green monkey Vero cells; assay type: toxicity, cell-based; conditions: African green monkey (Chlorocebus sabaeus)
[6] = Selectivity index, ratio of IC50 for cytotoxicity against African green monkey Vero cells to MIC for antimycobacterial activity against Mycobacterium tuberculosis H37Rv ATCC 27294; assay type: toxicity, cell-based; conditions: read-out: Selectivity Index

Q: Which MIC [1] does the source give for `C/C=C/C[C@@H]1NC(=O)[C@H](CC(C)C)N2C(=O)[C@H](C[C@@H](C)[C@H]2OCC)N(C)C(=O)[C@H](C)NC(=O)[C@H](Cc2ccc(O)c([N+](=O)[O-])c2)NC(=O)[C@H](CC(C)C)N(C)C(=O)[C@H](Cc2cn(C(C)(C)[C@H](O)CCl)c3ccccc23)NC1=O` here?
A: 0.24 µM (≈ 0.266 µg/mL)

Q: And the MIC (Mycobacterium avium)?
A: > 10 µM

Q: What about the MIC [2] of the same molecule?
A: 1.1 µM (≈ 1.22 µg/mL)

Q: What about the Kd [3] of the same molecule?
A: 120 nM

Q: And the Kd [4]?
A: 140 nM

Q: And the IC50 [5]?
A: > 10000 nM

Q: What about the selectivity ratio [6] of the same molecule?
A: > 42

Q: For `C/C=C/C[C@@H]1NC(=O)[C@H](CC(C)C)N2C(=O)[C@H](CC(C)[C@H]2O)N(C)C(=O)[C@H](C)NC(=O)[C@H](Cc2ccc(OC(C)=O)c([N+](=O)[O-])c2)NC(=O)[C@H](CC(C)C)N(C)C(=O)[C@H](Cc2cn(C(C)(C)[C@H]3CO3)c3ccccc23)NC1=O` (mixture of isomers), which selectivity ratio [6] is on record?
A: 11000

Q: With `C/C=C/C[C@@H]1NC(=O)[C@H](CC(C)C)N2C(=O)[C@H](CC(C)[C@H]2O)N(C)C(=O)[C@H](C)NC(=O)[C@H](Cc2ccc(O)c([N+](=O)[O-])c2)NC(=O)[C@H](CC(C)C)N(C)C(=O)[C@H](Cc2cn(C(C)(C)[C@H]3CO3)c3ccccc23)NC1=O` (mixture of isomers) as the molecule, how does the MIC [1] read?
A: 0.019 µM

Q: And the MIC (Mycobacterium avium)?
A: 1.2 µM

Q: What about the MIC [2] of the same molecule?
A: 0.29 µM

Q: What about the Kd [3] of the same molecule?
A: 83 nM

Q: And the Kd [4]?
A: 110 nM

Q: Which MIC [1] does the source give for `C/C=C/C[C@@H]1NC(=O)[C@H](CC(C)C)N2C=C(C)C[C@@H](C2=O)N(C)C(=O)[C@H](C)NC(=O)[C@H](Cc2ccc(O)c(N)c2)NC(=O)[C@H](CC(C)C)N(C)C(=O)[C@H](Cc2cn(C(C)(C)[C@H](O)CCl)c3ccccc23)NC1=O` here?
A: 0.89 µM (≈ 0.917 µg/mL)

Q: And the MIC (Mycobacterium avium)?
A: > 10 µM

Q: What about the MIC [2] of the same molecule?
A: 8.3 µM (≈ 8.55 µg/mL)

Q: And the IC50 [5]?
A: > 100000 nM

Q: And the selectivity ratio [6]?
A: > 110

Q: Which results are given for `C/C=C/C[C@@H]1NC(=O)[C@H](CC(C)C)N2C(=O)[C@H](CC(C)[C@H]2OC)N(C)C(=O)[C@H](C)NC(=O)[C@H](Cc2ccc(OC)c([N+](=O)[O-])c2)NC(=O)[C@H](CC(C)C)N(C)C(=O)[C@H](Cc2cn(C(C)(C)[C@H]3CO3)c3ccccc23)NC1=O` (stereo not given in full)?
A: MIC [1]: 0.006 µM (≈ 0.00642 µg/mL); MIC (Mycobacterium avium): 1.2 µM (≈ 1.28 µg/mL); MIC [2]: 0.53 µM (≈ 0.567 µg/mL); Kd [4]: 64 nM; IC50 [5]: 100000 nM; selectivity ratio [6]: 17000

Q: What does the source list for `C/C=C/C[C@@H]1NC(=O)[C@H](CC(C)C)N2C=C(C)C[C@@H](C2=O)N(C)C(=O)[C@H](C)NC(=O)[C@H](Cc2ccc(OC(C)=O)c([N+](=O)[O-])c2)NC(=O)[C@H](CC(C)C)N(C)C(=O)[C@H](Cc2cn(C(C)(C)[C@H](O)CCl)c3ccccc23)NC1=O`?
A: MIC [1]: 0.022 µM (≈ 0.0243 µg/mL); MIC (Mycobacterium avium): 5.8 µM (≈ 6.4 µg/mL); MIC [2]: 1.1 µM (≈ 1.21 µg/mL); IC50 [5]: > 100000 nM; selectivity ratio [6]: > 4500

Q: Which results are given for `C/C=C/C[C@@H]1NC(=O)[C@H](CC(C)C)N2C(=O)[C@H](CC(C)[C@H]2OCCC)N(C)C(=O)[C@H](C)NC(=O)[C@H](Cc2ccc(O)c([N+](=O)[O-])c2)NC(=O)[C@H](CC(C)C)N(C)C(=O)[C@H](Cc2cn(C(C)(C)[C@H](O)CCl)c3ccccc23)NC1=O` (stereo not given in full)?
A: MIC [1]: 0.75 µM (≈ 0.841 µg/mL); MIC (Mycobacterium avium): > 10 µM; MIC [2]: 2.1 µM (≈ 2.35 µg/mL); IC50 [5]: > 10000 nM; selectivity ratio [6]: > 13

Q: Which MIC [1] does the source give for `C/C=C/C[C@@H]1NC(=O)[C@H](CC(C)C)N2C=C(C)C[C@@H](C2=O)N(C)C(=O)[C@H](C)NC(=O)[C@H](Cc2ccc(OC)c([N+](=O)[O-])c2)NC(=O)[C@H](CC(C)C)N(C)C(=O)[C@H](Cc2cn(C(C)(C)[C@H]3CO3)c3ccccc23)NC1=O` here?
A: 0.073 µM (≈ 0.0758 µg/mL)

Q: And the MIC (Mycobacterium avium)?
A: > 10 µM

Q: What about the MIC [2] of the same molecule?
A: 2.3 µM (≈ 2.39 µg/mL)

Q: What about the IC50 [5] of the same molecule?
A: 98000 nM

Q: What about the selectivity ratio [6] of the same molecule?
A: 1300

Q: With `C/C=C/C[C@@H]1NC(=O)[C@H](CC(C)C)N2C=C(C)C[C@@H](C2=O)N(C)C(=O)[C@H](C)NC(=O)[C@H](Cc2ccc(OC(=O)c3ccccc3)c([N+](=O)[O-])c2)NC(=O)[C@H](CC(C)C)N(C)C(=O)[C@H](Cc2cn(C(C)(C)[C@H](O)CCl)c3ccccc23)NC1=O` as the molecule, how does the MIC [1] read?
A: 0.052 µM (≈ 0.0606 µg/mL)

Q: And the MIC (Mycobacterium avium)?
A: > 10 µM

Q: What about the MIC [2] of the same molecule?
A: 2 µM (≈ 2.33 µg/mL)

Q: And the IC50 [5]?
A: > 100000 nM

Q: What about the selectivity ratio [6] of the same molecule?
A: > 1900

Q: For `C/C=C/C[C@@H]1NC(=O)[C@H](CC(C)C)N2C(=O)[C@H](CC(C)[C@H]2OC)N(C)C(=O)[C@H](C)NC(=O)[C@H](Cc2ccc(O)c([N+](=O)[O-])c2)NC(=O)[C@H](CC(C)C)N(C)C(=O)[C@H](Cc2cn(C(C)(C)[C@H]3CO3)c3ccccc23)NC1=O` (stereo not given in full), which MIC [1] is on record?
A: 0.002 µM (≈ 0.00211 µg/mL)

Q: What about the MIC (Mycobacterium avium) of the same molecule?
A: 1.4 µM (≈ 1.48 µg/mL)

Q: What about the MIC [2] of the same molecule?
A: 0.15 µM (≈ 0.158 µg/mL)

Q: What about the IC50 [5] of the same molecule?
A: > 100000 nM

Q: What about the selectivity ratio [6] of the same molecule?
A: > 53000

Q: What does the source list for `CO[C@H]1/C=C/O[C@@]2(C)Oc3c(C)c(O)c4c(O)c(c(/C=N/N5CCN(C)CC5)c(O)c4c3C2=O)NC(=O)/C(C)=C\C=C\[C@H](C)[C@H](O)[C@@H](C)[C@@H](O)[C@@H](C)[C@H](OC(C)=O)[C@@H]1C` [RIFAMPIN]?
A: MIC [1]: 0.03 µM (≈ 0.0247 µg/mL); MIC [2]: > 4 µM; IC50 [5]: > 122000 nM

Q: For `C/C=C/C[C@@H]1NC(=O)[C@H](CC(C)C)N2C(=O)[C@H](CC(C)[C@H]2OC)N(C)C(=O)[C@H](C)NC(=O)[C@H](Cc2ccc(OC)c([N+](=O)[O-])c2)NC(=O)[C@H](CC(C)C)N(C)C(=O)[C@H](Cc2cn(C(C)(C)[C@H]3CO3)c3ccccc23)N(C)C1=O` (stereo not given in full), which MIC [1] is on record?
A: 0.065 µM (≈ 0.0705 µg/mL)

Q: And the MIC (Mycobacterium avium)?
A: 9 µM (≈ 9.76 µg/mL)

Q: And the MIC [2]?
A: 2.1 µM (≈ 2.28 µg/mL)

Q: What about the IC50 [5] of the same molecule?
A: 90000 nM

Q: What about the selectivity ratio [6] of the same molecule?
A: 1400

Q: For `C/C=C/C[C@@H]1NC(=O)[C@H](CC(C)C)N2C(=O)[C@H](C[C@H](C)[C@@H]2OCCCC)N(C)C(=O)[C@H](C)NC(=O)[C@H](Cc2ccc(O)c([N+](=O)[O-])c2)NC(=O)[C@H](CC(C)C)N(C)C(=O)[C@H](Cc2cn(C(C)(C)[C@H](O)CCl)c3ccccc23)NC1=O`, which MIC [1] is on record?
A: 0.048 µM (≈ 0.0545 µg/mL)

Q: And the MIC [2]?
A: 4.2 µM (≈ 4.77 µg/mL)

Q: And the Kd [3]?
A: 27 nM

Q: What about the Kd [4] of the same molecule?
A: 29 nM

Q: And the IC50 [5]?
A: > 100000 nM

Q: What about the selectivity ratio [6] of the same molecule?
A: > 2100

Q: Which MIC [1] does the source give for `C/C=C/C[C@@H]1NC(=O)[C@H](CC(C)C)N2C=C(C)C[C@@H](C2=O)N(C)C(=O)[C@H](C)NC(=O)[C@H](Cc2ccc(O)c([N+](=O)[O-])c2)NC(=O)[C@H](CC(C)C)N(C)C(=O)[C@H](Cc2cn(C(C)(C)[C@H](O)CCl)c3ccccc23)NC1=O` here?
A: 0.019 µM (≈ 0.0202 µg/mL)

Q: What about the MIC (Mycobacterium avium) of the same molecule?
A: 4.8 µM (≈ 5.09 µg/mL)

Q: And the MIC [2]?
A: 1.1 µM (≈ 1.17 µg/mL)

Q: What about the IC50 [5] of the same molecule?
A: > 100000 nM

Q: For `C/C=C/C[C@@H]1NC(=O)[C@H](CC(C)C)N2C(=O)[C@H](CC(C)[C@H]2OC(C)=O)N(C)C(=O)[C@H](C)NC(=O)[C@H](Cc2ccc(OC(C)=O)c([N+](=O)[O-])c2)NC(=O)[C@H](CC(C)C)N(C)C(=O)[C@H](Cc2cn(C(C)(C)[C@H]3CO3)c3ccccc23)NC1=O` (stereo not given in full), which MIC [1] is on record?
A: 0.004 µM (≈ 0.00451 µg/mL)

Q: And the MIC (Mycobacterium avium)?
A: 0.96 µM (≈ 1.08 µg/mL)

Q: And the MIC [2]?
A: 0.27 µM (≈ 0.304 µg/mL)

Q: And the Kd [4]?
A: 16 nM

Q: And the IC50 [5]?
A: > 100000 nM

Q: And the selectivity ratio [6]?
A: > 23000

Q: What does the source list for `C/C=C/C[C@@H]1NC(=O)[C@H](CC(C)C)N2C=C(C)C[C@@H](C2=O)N(C)C(=O)[C@H](C)NC(=O)[C@H](Cc2ccc3c(c2)N=C(C)CC(C)(C)O3)NC(=O)[C@H](CC(C)C)N(C)C(=O)[C@H](Cc2cn(C(C)(C)[C@H](O)CCl)c3ccccc23)NC1=O`?
A: MIC [1]: 0.79 µM (≈ 0.878 µg/mL); MIC (Mycobacterium avium): > 10 µM; MIC [2]: 4.5 µM (≈ 5 µg/mL); IC50 [5]: > 100000 nM; selectivity ratio [6]: > 130

Q: For `C/C=C/C[C@@H]1NC(=O)[C@H](CC(C)C)N2C(=O)[C@H](C[C@@H](C)[C@H]2OCCCC)N(C)C(=O)[C@H](C)NC(=O)[C@H](Cc2ccc(O)c([N+](=O)[O-])c2)NC(=O)[C@H](CC(C)C)N(C)C(=O)[C@H](Cc2cn(C(C)(C)[C@H](O)CCl)c3ccccc23)NC1=O`, which MIC [1] is on record?
A: 4.3 µM (≈ 4.88 µg/mL)

Q: What about the MIC [2] of the same molecule?
A: > 10 µM

Q: What about the Kd [3] of the same molecule?
A: 210 nM

Q: What about the Kd [4] of the same molecule?
A: 170 nM

Q: What about the IC50 [5] of the same molecule?
A: > 100000 nM

Q: Which MIC [1] does the source give for `NNC(=O)c1ccncc1` [ISONIAZID] here?
A: 0.46 µM (≈ 0.0631 µg/mL)

Q: What about the MIC [2] of the same molecule?
A: > 8 µM
